Experimental data: patent US10583141B2, “N-substituted hydroxamic acids with carbon-based leaving groups as efficient HNO donors and uses thereof” (The Johns Hopkins University, priority 2015, dated 2020)
Marks after values point to notes of the source that are not given here.

Legend:
[1] = Nitroxyl (HNO) production via N2O quantification in the headspace (GC), relative to Angeli's salt; details: N2O headspace analysis, 0.1 mM, 37° C. (SEM ± 5%; n = 3)
Excerpt: Nitrous oxide (N2O) is produced via the dimerization and dehydration of HNO, and is the most common marker for nitroxyl production (Fukuto et al., Chem. Res. Toxicol. 18:790-801 (2005)). […] Using either nitrous oxide gas or Angeli's salt (“AS”) as a standard, the relative amounts of N2O released from compounds of the disclosure is examined via gas chromatography (“GC”) headspace analysis.
Another procedure for determining N2O released from compounds of the disclosure is as follows. A Varian CP-3800 instrument equipped with a 1041 injector, electron capture detector, and a 25 m 5 Å molecular sieve capillary column was applied for the analysis of nitrous oxide (N2O). Grade 5.0 nitrogen was used as both the carrier (8 mL/min) and the make-up (22 mL/min) gas. For all the measurements, the column oven temperature was kept constant at 150° C., and the injector oven and the detector oven were held at 200° C. and 300° C., respectively. A 100 μL gastight syringe with a sample-lock was used for all gas injections. Samples were prepared in 6 mL Wheaton Clr headspace vials with volumes pre-measured for sample uniformity (actual vial volume ranges from 5.8-6.3 mL). Vials were charged with 3 mL of phosphate buffer containing the metal chelator, diethylenetriaminepentaacetic acid (DTPA), and fit with rubber septa and 20 mm aluminum seals. The vials were purged with argon and equilibrated for at least 10 minutes at 37° C. in a dry block heater. A 10 mM stock solution of Angeli's salt (AS) was prepared in 10 mM sodium hydroxide, and compounds of the disclosure (10 mM) were prepared in acetonitrile and used immediately after preparation. 30 μL of the stock solutions was transferred into vials using a gastight syringe, yielding final concentrations of 0.1 mM. Substrates were then incubated long enough to ensure complete decomposition and equilibration of N2O with the headspace. For each sample, 60 μL of the headspace was sampled and injected three times using a gastight syringe with a sample lock. The N2O yield was averaged and reported relative to the standard, Angeli's salt. HNO yields were measured either at the half-life of the donor or after complete decomposition of the donor and are reported relative to the standard HNO donor, Angeli's salt, as determined by N2O headspace analysis (SEM±5%; n=3).

[2] = Stability (half-life of donor decomposition) via 1H NMR protocol; type: physicochemical; details: 5 mM donor in 10% DMSO-d6, 10% D2O, 80% H2O, phosphate buffer (0.25M) with DTPA (0.2 mM), pH 7.4, 37° C., under argon
Excerpt: A ^1H NMR spectroscopy protocol was used to measure the half-life of donor decomposition by quantifying donor and the corresponding byproduct as a function of time (Guthrie, D. A.; Ho, A.; Takahashi, C. G.; Collins, A.; Morris, M.; Toscano, J. P. J. Org. Chem. 2015, 80, 1338-1348; and Guthrie, D. A.; Nourian, S.; Takahashi, C. G.; Toscano, J. P. J. Org. Chem. 2015, 80, 1349-1356). Based on distinctive chemical shifts of the compounds of the disclosure and their corresponding byproducts, the decomposition of the compounds of the disclosure and release of their byproduct was easily monitored. Utilizing this assay, the half-lives of particular compounds of the disclosure were determined under physiologically relevant conditions (Table 2).

[3] = pKa by titration with NaOH solution; type: physicochemical; details: 50% (v/v) aqueous ethanol
Description: (§1) A UV-VIS protocol was used to determine the decomposition kinetics of compounds 1, 3, 5 and 6. According to this protocol, decomposition of Compound 5, was monitored by examining the growth of the distinctive absorbance of the pyrazolone byproduct (λ=265 nm) at pH 7.4 and 37° C. in phosphate buffer as a function of pH (Guthrie, D. A., Kim, N. Y., Siegler, M. A.; Moore, C. D., Toscano, J. P. J. Am. Chem. Soc. 2012, 134, 1962-1965; and Guthrie, D. A.; Ho, A.; Takahashi, C. G.; Collins, A., Morris, M.; Toscano, J. P. J. Org. Chem. 2015, 80, 1338-1348). The decomposition of rate is pH-dependent, and based on the experimental kinetic data, the pKa of Compound 5 was estimated to be 10.7. Following this protocol, the decomposition kinetics for compounds […] were determined. […] Thus, the pKa values of Compounds 1 (10.0) and 3 (9.1) in 50% (v/v) aqueous ethanol were measured by titration with NaOH solution.

[4] = Decomposition kinetics via UV-VIS protocol (growth of pyrazolone byproduct absorbance); type: physicochemical; details: phosphate buffer; for decomposition (UV-VIS, in words): pH 7.4, 37° C.
Description: as §1

[5] = Stability in the presence of a pyrazolone by 1H NMR (mechanistic study); type: physicochemical
Description: A ^1H NMR Spectroscopy Protocol was used to confirm the formation of nitroso carbonyls following decomposition of compound 5. In this protocol, 0.5 mM Compound 5 was incubated in the presence of 0.5 mM 3,4-dimethyl-N-phenylpyrazolone in 0.25 M phosphate buffer with 0.2 mM DTPA at pH 7.4, 80% H2O, 10% D2O, and 10% DMSO-d6 at 37° C. under argon. Spectra were collected at the start of the experiment and after complete decomposition.
To eliminate the possibility of direct attack of 3,4-dimethyl-1-phenyl-1H-pyrazol-5(4H)-one on the amidic nitrogen of hydroxamic acid moiety in Compound 1 through a SN2 reaction (Glover, S. A.; Rauk, A.; Buccigross, J. M.; Campbell. J. J.; Hammond, G. P.; Guoning, M.; Andrews. L. E.: Gillson, A. M. Can. J. Chem. 2005, 83, 1492-1509), the stability of Compound 11 in the presence of 4-(acetyl-O-methoxyoxime)-N-phenyl-3-methyl-pyrazolone was confirmed by ^1H NMR.

[6] = HNO yield at the half-life of the donor
[7] = HNO yield after complete decomposition of the donor

Q: Which results are given for `CO/N=C(\C)C1(N(O)C(C)=O)C(=O)N(c2ccccc2)N=C1C` (stereo not shown) [Compound 1, N-hydroxy-N-(4-(1-(methoxyimino)ethyl)-3-methyl-5-oxo-1-phenyl-4,5-dihydro-1H-pyrazol-4-yl)acetamide]?
A: % HNO [1, 6]: 82^a %; half-life at 5 mM [2]: 120 h; pKa [3]: 10; decomposition (UV-VIS, in words) [4]: stable for 1 hour

Q: Which “% HNO” value [1, 6] does the source give for `CO/N=C(\C)C1(N(O)C(=O)OC)C(=O)N(c2ccccc2)N=C1C` (stereo not shown) [Compound 3, Methyl hydroxy(4-(1-(methoxyimino)ethyl)-3-methyl-5-oxo-1-phenyl-4,5-dihydro-1H-pyrazol-4-yl)carbamate] here?
A: 104^a %

Q: What about the half-life at 5 mM [2] of the same compound?
A: 48 h

Q: And the pKa [3]?
A: 9.1

Q: And the “decomposition (UV-VIS, in words)” value [4]?
A: decomposed slowly

Q: Which “% HNO” value [1, 6] does the source give for `CO/N=C(\C)C1(N(O)C(=O)OC)C(=O)N(C)N=C1C` (stereo not shown) [Compound 4, Methyl hydroxy(4-(1-(methoxyimino)ethyl)-1,3-dimethyl-5-oxo-4,5-dihydro-1H-pyrazol-4-yl)carbamate] here?
A: 94^a %

Q: What about the half-life at 5 mM [2] of the same compound?
A: 96 h

Q: With `CO/N=C(\C)C1(N(O)C(=O)N(C)C)C(=O)N(c2ccccc2)N=C1C` (stereo not shown) [Compound 5, 1-hydroxy-1-(4-(1-(methoxyimino)ethyl)-3-methyl-5-oxo-1-phenyl-4,5-dihydro-1H-pyrazol-4-yl)-3,3-dimethylurea] as the compound, how does the “% HNO” value [1, 7] read?
A: >95^b %

Q: And the half-life at 5 mM [2]?
A: 0.417 h

Q: And the pKa ([4]; estimated from pH-dependent decomposition kinetic data, 37° C.)?
A: 10.7

Q: With `CO/N=C(\C)C1(N(O)C(=O)N(C)C)C(=O)N(C)N=C1C` (stereo not shown) [Compound 6, 1-hydroxy-1-(4-(1-(methoxyimino)ethyl)-1,3-dimethyl-5-oxo-4,5-dihydro-1H-pyrazol-4-yl)-3,3-dimethylurea] as the compound, how does the “% HNO” value [1, 7] read?
A: >95^b %

Q: And the half-life at 5 mM [2]?
A: 0.767 h

Q: With `CC(=O)N(O)C1(C)C(=O)N(c2ccccc2)N=C1C` (stereo not shown) [Compound 11, N-hydroxy-N-(3,4-dimethyl-5-oxo-1-phenyl-4,5-dihydro-1H-pyrazol-4-yl)-acetamide] as the compound, how does the “stability in the presence of 4-(acetyl-O-methoxyoxime)-N-phenyl-3-methyl-pyrazolone” value [5] read?
A: confirmed
